US20220177508A1, “C10-Cyclic Substituted 13-Membered Macrolides and Uses Thereof” (Zikani Therapeutics, Inc., priority 2018, published 2022)
Converted amounts (≈) assume the structure as drawn.

Assays:
Format in all cases: cell-based
[1] = system: E. coli MP-4; test: Broth dilution MIC determination (CLSI), E. coli MP-4; conditions: Escherichia coli, MP4; strain MP-4, broth dilution; read-out: MIC E. coli MP-4
[2] = system: K. pneumoniae MP-546; test: Broth dilution MIC determination (CLSI), K. pneumoniae MP-546; conditions: Klebsiella pneumoniae, MP546; strain MP-546, broth dilution
[3] = system: P. aeruginosa MP-3; test: Broth dilution MIC determination (CLSI), P. aeruginosa MP-3; conditions: Pseudomonas aeruginosa, MP3; strain MP-3, broth dilution
[4] = system: S. aureus MP-12; test: Broth dilution MIC determination (CLSI), S. aureus MP-12; conditions: Staphylococcus aureus, MP12; strain MP-12, broth dilution
[5] = system: A. baumannii MP-15; test: Broth dilution MIC determination (CLSI), A. baumannii MP-15; conditions: Acinetobacter baumannii, MP15; strain MP-15, broth dilution; read-out: MIC A. baumanii MP-15

MIC [1] [mg/L] | MIC [2] [mg/L] | MIC [3] [mg/L] | MIC [4] [mg/L] | MIC [5] [mg/L] | SMILES
> 32 | > 32 | > 32 | > 32 | > 32 | CO[C@]1(C)C[C@@H](C)CN(C)[C@H]([C@@H]2CCCN2C)COC(=O)C(C)(C)C(=O)[C@H](C)[C@H]1O[C@@H]1O[C@H](C)C[C@H](N(C)C)[C@H]1O [Compound 106, (3R,6R,8R,9R,10R)-9-(((2S,3R,4S,6R)-4-(dimethylamino)-3-hydroxy-6-methyltetrahydro-2H-pyran-2-yl)oxy)-8-methoxy-4,6,8,10,12,12-hexamethyl-3-((S)-1-methylpyrrolidin-2-yl)-1-oxa-4-azacyclotridecane-11,13-dione]
4 to 32 (≈ 5.86 to 46.9 µM) | 4 to 32 (≈ 5.86 to 46.9 µM) | > 32 | > 32 | > 32 | CO[C@]1(C)C[C@@H](C)CN(C)[C@H](C2CCN(C(=O)CNCC(C)C)CC2)COC(=O)C(C)C(=O)[C@H](C)[C@H]1O[C@@H]1O[C@H](C)C[C@H](N(C)C)[C@H]1O (stereo partly drawn) [Compound 107, (3R,6R,8R,9R,10R)-9-(((2S,3R,4S,6R)-4-(dimethylamino)-3-hydroxy-6-methyltetrahydro-2H-pyran-2-yl)oxy)-3-(1-(isobutylglycyl)piperidin-4-yl)-8-methoxy-4,6,8,10,12-pentamethyl-1-oxa-4-azacyclotridecane-11,13-dione]
< 4 | < 4 | > 32 | > 32 | > 32 | CO[C@]1(C)C[C@@H](C)CN(C)[C@@H]([C@@H]2CCN(C)C2)COC(=O)C(C)(C)C(=O)[C@H](C)[C@H]1O[C@@H]1O[C@H](C)C[C@H](N(C)C)[C@H]1O [Compound 109, (3S,6R,8R,9R,10R)-9-(((2S,3R,4S,6R)-4-(Dimethylamino)-3-hydroxy-6-methyltetrahydro-2H-pyran-2-yl)oxy)-8-methoxy-4,6,8,10,12,12-hexamethyl-3-((R)-1-methylpyrrolidin-3-yl)-1-oxa-4-azacyclotridecane-11,13-dione]
< 4 | < 4 | > 32 | 4 to 32 (≈ 6.39 to 51.1 µM) | > 32 | CO[C@]1(C)C[C@@H](C)CN(C)[C@@H]([C@@H]2CCN(CC(C)C)C2)COC(=O)C(C)(C)C(=O)[C@H](C)[C@H]1O[C@@H]1O[C@H](C)C[C@H](N(C)C)[C@H]1O [Compound 110, (3S,6R,8R,9R,10R)-9-(((2S,3R,4S,6R)-4-(dimethylamino)-3-hydroxy-6-methyltetrahydro-2H-pyran-2-yl)oxy)-3-((R)-1-isobutylpyrrolidin-3-yl)-8-methoxy-4,6,8,10,12,12-hexamethyl-1-oxa-4-azacyclotridecane-11,13-dione]
< 4 | < 4 | > 32 | 4 to 32 (≈ 6.54 to 52.3 µM) | 4 to 32 (≈ 6.54 to 52.3 µM) | CO[C@]1(C)C[C@@H](C)CN(C)[C@H](C2CN(CC(C)C)C2)COC(=O)C(C)(C)C(=O)[C@H](C)[C@H]1O[C@@H]1O[C@H](C)C[C@H](N(C)C)[C@H]1O [Compound 112]
4 to 32 (≈ 6.69 to 53.5 µM) | > 32 | > 32 | > 32 | > 32 | CO[C@]1(C)C[C@@H](C)CN(C)[C@H]([C@@H]2CCCN(C)C2)COC(=O)C(C)(C)C(=O)[C@H](C)[C@H]1O[C@@H]1O[C@H](C)C[C@H](N(C)C)[C@H]1O [Compound 113, (3R,6R,8R,9R,10R)-9-(((2S,3R,4S,6R)-4-(dimethylamino)-3-hydroxy-6-methyltetrahydro-2H-pyran-2-yl)oxy)-8-methoxy-4,6,8,10,12,12-hexamethyl-3-((R)-1-methylpiperidin-3-yl)-1-oxa-4-azacyclotridecane-11,13-dione]

The remaining lines, values behind:

SMILES | MIC [1] [mg/L] | MIC [2] [mg/L] | MIC [3] [mg/L] | MIC [4] [mg/L] | MIC [5] [mg/L]
CO[C@]1(C)C[C@@H](C)CN(C)[C@H](c2ccc(-c3cccc(N)c3)cc2)COC(=O)C(C)(C)C(=O)[C@H](C)[C@H]1O[C@@H]1O[C@H](C)C[C@H](N(C)C)[C@H]1O [Compound 93, (3R,6R,8R,9R,10R)-3-(3′-Amino-[1,1′-biphenyl]-4-yl)-9-(((2S,3R,4S,6R)-4-(dimethylamino)-3-hydroxy-6-methyltetrahydro-2H-pyran-2-yl)oxy)-8-methoxy-4,6,8,10,12,12-hexamethyl-1-oxa-4-azacyclotridecane-11,13-dione] | 4 to 32 (≈ 5.99 to 47.9 µM) | > 32 | > 32 | 4 to 32 (≈ 5.99 to 47.9 µM) | > 32
CO[C@]1(C)C[C@@H](C)CN(C)[C@H]([C@H]2CCCN(C(=O)CN(C)C)C2)COC(=O)C(C)(C)C(=O)[C@H](C)[C@H]1O[C@@H]1O[C@H](C)C[C@H](N(C)C)[C@H]1O [Compound 96, (3R,6R,8R,9R,10R)-9-(((2S,3R,4S,6R)-4-(dimethylamino)-3-hydroxy-6-methyltetrahydro-2H-pyran-2-yl)oxy)-3-((S)-1-(dimethylglycyl)piperidin-3-yl)-8-methoxy-4,6,8,10,12,12-hexamethyl-1-oxa-4-azacyclotridecane-11,13-dione] | 4 to 32 (≈ 5.98 to 47.8 µM) | > 32 | > 32 | > 32 | > 32
CO[C@]1(C)C[C@@H](C)CN(C)[C@@H](C2CCNCC2)COC(=O)C(C)(C)C(=O)[C@H](C)[C@H]1O[C@@H]1O[C@H](C)C[C@H](N(C)C)[C@H]1O [Compound 98, (3S,6R,8R,9R,10R)-9-(((2S,3R,4S,6R)-4-(dimethylamino)-3-hydroxy-6-methyltetrahydro-2H-pyran-2-yl)oxy)-8-methoxy-4,6,8,10,12,12-hexamethyl-3-(piperidin-4-yl)-1-oxa-4-azacyclotridecane-11,13-dione] | < 4 | 4 to 32 (≈ 6.85 to 54.8 µM) | > 32 | 4 to 32 (≈ 6.85 to 54.8 µM) | > 32
CO[C@]1(C)C[C@@H](C)CN(C)[C@@H](C2CN(C)C2)COC(=O)C(C)(C)C(=O)[C@H](C)[C@H]1O[C@@H]1O[C@H](C)C[C@H](N(C)C)[C@H]1O [Compound 99, (3S,6R,8R,9R,10R)-9-(((2S,3R,4S,6R)-4-(dimethylamino)-3-hydroxy-6-methyltetrahydro-2H-pyran-2-yl)oxy)-8-methoxy-4,6,8,10,12,12-hexamethyl-3-(1-methylazetidin-3-yl)-1-oxa-4-azacyclotridecane-11,13-dione] | < 4 | < 4 | > 32 | > 32 | > 32
CO[C@]1(C)C[C@@H](C)CN(C)[C@H]([C@H]2CCN(C(=O)CN(C)C)C2)COC(=O)C(C)(C)C(=O)[C@H](C)[C@H]1O[C@@H]1O[C@H](C)C[C@H](N(C)C)[C@H]1O [Compound 100, (3R,6R,8R,9R,10R)-9-(((2S,3R,4S,6R)-4-(Dimethylamino)-3-hydroxy-6-methyltetrahydro-2H-pyran-2-yl)oxy)-3-((S)-1-(dimethylglycyl)pyrrolidin-3-yl)-8-methoxy-4,6,8,10,12,12-hexamethyl-1-oxa-4-azacyclotridecane-11,13-dione] | 4 to 32 (≈ 6.11 to 48.9 µM) | 4 to 32 (≈ 6.11 to 48.9 µM) | > 32 | > 32 | > 32
CO[C@]1(C)C[C@@H](C)CN(C)[C@H](C2CN(Cc3ccccc3)C2)COC(=O)C(C)(C)C(=O)[C@H](C)[C@H]1O[C@@H]1O[C@H](C)C[C@H](N(C)C)[C@H]1O [Compound 101, (3R,6R,8R,9R,10R)-3-(1-benzylazetidin-3-yl)-9-(((2S,3R,4S,6R)-4-(dimethylamino)-3-hydroxy-6-methyltetrahydro-2H-pyran-2-yl)oxy)-8-methoxy-4,6,8,10,12,12-hexamethyl-1-oxa-4-azacyclotridecane-11,13-dione] | < 4 | < 4 | > 32 | 4 to 32 (≈ 6.19 to 49.5 µM) | 4 to 32 (≈ 6.19 to 49.5 µM)
CO[C@]1(C)C[C@@H](C)CN(C)[C@@H](C2CCCCC2)COC(=O)C(C)(C)C(=O)[C@H](C)[C@H]1O[C@@H]1O[C@H](C)C[C@H](N(C)C)[C@H]1O [Compound 102, (3S,6R,8R,9R,10R)-3-cyclohexyl-9-(((2S,3R,4S,6R)-4-(dimethylamino)-3-hydroxy-6-methyltetrahydro-2H-pyran-2-yl)oxy)-8-methoxy-4,6,8,10,12,12-hexamethyl-1-oxa-4-azacyclotridecane-11,13-dione] | > 32 | > 32 | > 32 | > 32 | > 32
CO[C@]1(C)C[C@@H](C)CN(C)[C@H]([C@H]2CCCN(C(C)C)C2)COC(=O)C(C)(C)C(=O)[C@H](C)[C@H]1O[C@@H]1O[C@H](C)C[C@H](N(C)C)[C@H]1O [Compound 104, (3R,6R,8R,9R,10R)-9-(((2S,3R,4S,6R)-4-(dimethylamino)-3-hydroxy-6-methyltetrahydro-2H-pyran-2-yl)oxy)-3-((S)-1-isopropylpiperidin-3-yl)-8-methoxy-4,6,8,10,12,12-hexamethyl-1-oxa-4-azacyclotridecane-11,13-dione] | < 4 | 4 to 32 (≈ 6.39 to 51.1 µM) | > 32 | 4 to 32 (≈ 6.39 to 51.1 µM) | > 32
CCCN1C[C@H](C)C[C@@](C)(OC)[C@H](O[C@@H]2O[C@H](C)C[C@H](N(C)C)[C@H]2O)[C@@H](C)C(=O)C(C)(C)C(=O)OC[C@H]1C1CN(CC(C)C)C1 [Compound 105, (3R,6R,8R,9R,10R)-9-(((2S,3R,4S,6R)-4-(dimethylamino)-3-hydroxy-6-methyltetrahydro-2H-pyran-2-yl)oxy)-3-(1-isobutylazetidin-3-yl)-8-methoxy-6,8,10,12,12-pentamethyl-4-propyl-1-oxa-4-azacyclotridecane-11,13-dione] | 4 to 32 (≈ 6.25 to 50 µM) | > 32 | > 32 | > 32 | > 32
